Data published in patent publication US20230132202A1, “Polymeric Binder and High Molecular Weight Polymer Antifouling Compositions” (The University of British Columbia, priority 2020, published 2023).

Key:
[1] = cited from earlier work
[2] = cited from earlier work; remark: listed apart in the source
[3] = Drug release measurements from coated silicon wafers, UV-Vis; format: physicochemical
Procedure: Drug release measurements: The coated silicon wafers were added into the wells of 96 well-plate and immersed in PBS buffer (200 μL) was added to each well. At day 1 and day 7, the solution was collected and the drug concentration was measured using UV-Vis spectroscopy and standard curves prepared using pure bioactive agents. The released solution was diluted to 1 mL using PBS before the measurements.

[4] = day 1, coated silicon wafer in PBS
[5] = day 7, coated silicon wafer in PBS

| Compound | Net charge at pH 7.4 [1] | Water solubility [2] | concentration of eluted drug [3, 4] | concentration of eluted drug [3, 5] |
| --- | --- | --- | --- | --- |
| CC(=O)O[C@@]12CO[C@@H]1C[C@H](O)[C@@]1(C)C(=O)[C@H](O)C3=C(C)[C@@H](OC(=O)[C@H](O)[C@@H](NC(=O)OC(C)(C)C)c4ccccc4)C[C@@](O)([C@@H](OC(=O)c4ccccc4)[C@H]21)C3(C)C [Docetaxel] | Neutral | <0.01 mg/mL | 12.5 ppm (microgram/mL) | 13.7 ppm (microgram/mL) |
| CC(=O)O[C@H]1C(=O)[C@@]2(C)[C@H]([C@H](OC(=O)c3ccccc3)[C@]3(O)C[C@H](OC(=O)[C@H](O)[C@@H](NC(=O)c4ccccc4)c4ccccc4)C(C)=C1C3(C)C)[C@]1(OC(C)=O)CO[C@@H]1C[C@@H]2O [Paclitaxel] |  |  | 1.3 ppm (microgram/mL) | 1.4 ppm (microgram/mL) |
| CO[C@H]1/C=C/O[C@@]2(C)Oc3c(C)c(O)c4c(O)c(c(/C=N/N5CCN(C)CC5)c(O)c4c3C2=O)NC(=O)/C(C)=C\C=C\[C@H](C)[C@H](O)[C@@H](C)[C@@H](O)[C@@H](C)[C@H](OC(C)=O)[C@@H]1C [Rifampicin] |  | 0.0413 mg/mL |  |  |
| NC[C@H]1O[C@H](O[C@H]2[C@H](O)[C@@H](O[C@H]3O[C@H](CO)[C@@H](O)[C@H](N)[C@H]3O)[C@H](N)C[C@@H]2N)[C@H](N)C[C@@H]1O [Tobramycin] | Neutral | 53.7 mg/mL |  |  |
| Gentamicin | Neutral |  |  |  |
| Penicillin | Neutral | >30 mg/mL |  |  |
